In patent US20240067651A1 (Biohaven Therapeutics Ltd., priority 2019, published 2024):

Assays:
Caco-2 monolayer = assay: Caco-2 Permeability Assay; type: in vitro ADME, human
How it was run: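 Bidirectional transport at 37 °C for 90 min, 10 μM donor concentration, with or without Pgp inhibitor, across 21-day Caco-2 monolayers with TEER >600 […] in HEPES-buffered HBSS, pH 7.4. LC-MS/MS of donor and receiver samples gives Papp, B→A/A→B efflux ratio and mass recovery.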

[1] = Stability in Simulated Gastric Fluid (SGF); type: in vitro ADME; parameters: key: % parent compound remaining relative to 0-minute sample
How it was run: (§1)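 2 μg/mL final; SGF + pepsin pH 1.2 or SIF + pancreatin pH 6.8; 37° C, 150 rpm, 0–60 min. ACN quench with propranolol IS, LC-MS/MS. % parent vs 0 min; t1/2 from ln plot.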

[2] = Stability in Simulated Intestinal Fluid (SIF); type: in vitro ADME; parameters: key: % parent compound remaining relative to 0-minute sample
How it was run: as §1

Plasma Stability = type: in vitro ADME, human
How it was run: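 Parent compound quantified by LC-MS/MS after acetonitrile precipitation, reported as percent of control remaining (triplicate). Incubation: 1 hour, 37° C, fresh human plasma, compound at 1 μM.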

[3] = % remaining at 1 h in simulated gastric fluid
[4] = % remaining at 1 h in simulated intestinal fluid
[5] = % remaining at 1 h in human plasma
[6] = % remaining at 1 h, SGF with pepsin pH 1.2, 2 μg/mL, 37° C.
[7] = % remaining at 1 h, SIF with pancreatin pH 6.8, 2 μg/mL, 37° C.
[8] = % remaining at 1 h, human plasma, 1 μM, 37° C.

Row | Caco-2 Papp (Caco-2 monolayer; donor 10 μM, 90 minutes, 37° C., direction not given) | SGF [1, 6] | SIF [2, 7] | human Plasma stability (Plasma Stability; [8]) | Caco-2 Papp (Caco-2 monolayer; unit inferred) | SMILES | Caco-2 Papp (Caco-2 monolayer; Caco-2 monolayer) | SGF [1, 3] | SIF [2, 4] | human Plasma stability (Plasma Stability; [5])
1 |  |  |  |  |  | CC(C)OCCn1c(=S)[nH]c(=O)c2c1ccn2COC(=O)CCCCNC(=O)[C@@H]1CCC(=O)N1C(=O)OCc1ccccc1.O=C(O)C(F)(F)F [Example 16, trifluoroacetic acid benzyl (5S)-2-oxo-5-{[5-oxo-5-({4-oxo-1-[2-(propan-2-yloxy)ethyl]-2-sulfanylidene-1H,2H,3H,4H,5H-pyrrolo[3,2-d]pyrimidin-5-yl}methoxy)pentyl]carbamoyl} pyrrolidine-1-carboxylate] | 0.903 ×10⁻⁶ cm/s | 96% remaining | 93% remaining | 21% remaining
2 |  |  |  |  |  | CC(C)OCCn1c(=S)[nH]c(=O)c2c1ccn2COC(=O)CCNC(=O)[C@@H]1CCC(=O)N1C(=O)OCc1ccccc1.O=C(O)C(F)(F)F [Example 17, trifluoroacetic acid benzyl (5S)-2-oxo-5-{[3-oxo-3-({4-oxo-1-[2-(propan-2-yloxy)ethyl]-2-sulfanylidene-1H,2H,3H,4H,5H-pyrrolo[3,2-d]pyrimidin-5-yl}methoxy)propyl]carbamoyl} pyrrolidine-1-carboxylate] | 0.368 ×10⁻⁶ cm/s | 99% remaining | 3% remaining | 38% remaining
3 |  |  |  |  |  | CC(C)OCCn1c(=S)[nH]c(=O)c2c1ccn2COC(=O)CCCCNC(=O)[C@@H](N)CCc1ccccc1.O=C(O)C(F)(F)F [Example 24, trifluoroacetic acid {4-oxo-1-[2-(propan-2-yloxy)ethyl]-2-sulfanylidene-1H,2H,3H,4H,5H-pyrrolo [3,2-d]pyrimidin-5-yl} methyl 5-[(2S)-2-amino-4-phenylbutanamido]pentanoate] | 0.302 ×10⁻⁶ cm/s | 99% remaining | 76% remaining | 1% remaining
4 |  |  |  |  |  | CSCC[C@H](N)C(=O)NCCC(=O)OCn1ccc2c1c(=O)[nH]c(=S)n2CCOC(C)C.O=C(O)C(F)(F)F [Example 32, trifluoroacetic acid {4-oxo-1-[2-(propan-2-yloxy)ethyl]-2-sulfanylidene-1H,2H,3H,4H,5H-pyrrolo [3,2-d]pyrimidin-5-yl} methyl 3-[(2S)-2-amino-4-(methylsulfanyl)butanamido]propanoate] | 0.147 ×10⁻⁶ cm/s | 97% remaining | 33% remaining | 17% remaining
5 |  |  |  |  |  | CC(C)OCCn1c(=S)[nH]c(=O)c2c1ccn2COC(=O)CCCCNC(=O)[C@@H]1CCCN1C(N)=O.O=C(O)C(F)(F)F [Example 69, trifluoroacetic acid {4-oxo-1-[2-(propan-2-yloxy)ethyl]-2-sulfanylidene-1H,2H,3H,4H,5H-pyrrolo[3,2-d]pyrimidin-5-yl}methyl 5-{[(2S)-1-carbamoylpyrrolidin-2-yl]formamido}pentanoate Caco-2 Papp] | 0.217 ×10⁻⁶ cm/s | 84% remaining | 94% remaining | 7% remaining
6 | unstable | 1% remaining | 74% remaining | 0% remaining |  | CC(C)OCCn1c(=S)[nH]c(=O)c2c1ccn2C(C)OC(=O)OC(C)C (stereo not shown) [Example 92, 1-{4-oxo-1-[2-(propan-2-yloxy)ethyl]-2-sulfanylidene-1H,2H,3H,4H,5H-pyrrolo[3,2-d]pyrimidin-5-yl}ethyl propan-2-yl carbonate] |  |  |  | 
7 |  | 100% | 1% | 2% | 13.9 ×10⁻⁶ cm/s | COCCOCCOC(=O)OCn1c(=O)c2c(ccn2COC(=O)OCCOCCOC)n(CCOC(C)C)c1=S [Example 106, {3-[{{[2-(2-methoxyethoxy)ethoxy]carbonyl}oxy)methyl]-4-oxo-1-[2-(propan-2-yloxy)ethyl]-2-sulfanylidene-1H,2H,3H,4H,5H-pyrrolo[3,2-d]pyrimidin-5-yl} methyl 2-(2-methoxyethoxy)ethyl carbonate] |  |  |  | 
